# Reference: PubChem BioAssay (NCI)
#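 How tested: cells in 96-well plates exposed to compound for 48 hours at five concentrations. TGI denotes the concentration required for complete inhibition of growth.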
# Experiments:
# Assay in all cases: NCI tumour cell line growth inhibition, 48 h
# 786-0 renal = test system: 786-0 renal
# A498 renal = test system: A498 renal
# A549 NSCLC = test system: A549 NSCLC
# ACHN renal = test system: ACHN renal
# CAKI-1 renal = test system: CAKI-1 renal
# CCRF-CEM leukemia = test system: CCRF-CEM leukemia
# COLO 205 colon = test system: COLO 205 colon
# DU-145 prostate = test system: DU-145 prostate
# EKVX NSCLC = test system: EKVX NSCLC
# HCC-2998 colon = test system: HCC-2998 colon
# HCT-15 colon = test system: HCT-15 colon
# HL-60(TB) leukemia = test system: HL-60(TB) leukemia
# HOP-62 NSCLC = test system: HOP-62 NSCLC
# HOP-92 NSCLC = test system: HOP-92 NSCLC
# HS 578T breast = test system: HS 578T breast
# HT29 colon = test system: HT29 colon
# IGROV1 ovarian = test system: IGROV1 ovarian
# K-562 leukemia = test system: K-562 leukemia
# KM12 colon = test system: KM12 colon
# LOX IMVI melanoma = test system: LOX IMVI melanoma
# M14 melanoma = test system: M14 melanoma
# MALME-3M melanoma = test system: MALME-3M melanoma
# MCF7 breast = test system: MCF7 breast
# MDA-MB-231 breast = test system: MDA-MB-231 breast
# MDA-MB-435 = test system: MDA-MB-435
# MDA-N = test system: MDA-N
# MOLT-4 leukemia = test system: MOLT-4 leukemia
# NCI-H226 lung = test system: NCI-H226 lung
# NCI-H23 lung = test system: NCI-H23 lung
# NCI-H460 lung = test system: NCI-H460 lung
# NCI-H522 lung = test system: NCI-H522 lung
# NCI/ADR-RES ovarian = test system: NCI/ADR-RES ovarian
# OVCAR-3 ovarian = test system: OVCAR-3 ovarian
# OVCAR-4 ovarian = test system: OVCAR-4 ovarian
# OVCAR-5 ovarian = test system: OVCAR-5 ovarian
# OVCAR-8 ovarian = test system: OVCAR-8 ovarian
# PC-3 prostate = test system: PC-3 prostate
# RPMI-8226 leukemia = test system: RPMI-8226 leukemia
# RXF 393 renal = test system: RXF 393 renal
# SF-268 CNS = test system: SF-268 CNS
# SF-295 CNS = test system: SF-295 CNS
# SF-539 CNS = test system: SF-539 CNS
# SK-MEL-2 melanoma = test system: SK-MEL-2 melanoma
# SK-MEL-28 melanoma = test system: SK-MEL-28 melanoma
# SK-MEL-5 melanoma = test system: SK-MEL-5 melanoma
# SK-OV-3 ovarian = test system: SK-OV-3 ovarian
# SNB-19 CNS = test system: SNB-19 CNS
# SNB-75 CNS = test system: SNB-75 CNS
# SR leukemia = test system: SR leukemia
# SW-620 colon = test system: SW-620 colon
# T-47D breast = test system: T-47D breast
# TK-10 renal = test system: TK-10 renal
# U251 CNS = test system: U251 CNS
# UACC-257 melanoma = test system: UACC-257 melanoma
# UACC-62 melanoma = test system: UACC-62 melanoma
# UO-31 renal = test system: UO-31 renal
# SN12C renal = test system: SN12C renal
structure (smiles),measurement,setting,value
C(#C[C@@]12CCC[C@@H]1NCO2)c1ccc2c(c1)OCO2,TGI,786-0 renal,> 100 µM
same,TGI,A498 renal,> 100 µM
same,TGI,A549 NSCLC,> 100 µM
same,TGI,ACHN renal,> 100 µM
same,TGI,CAKI-1 renal,> 100 µM
same,TGI,CCRF-CEM leukemia,> 100 µM
same,TGI,COLO 205 colon,31.5 µM
same,TGI,DU-145 prostate,> 100 µM
same,TGI,EKVX NSCLC,> 100 µM
same,TGI,HCC-2998 colon,34.6 µM
same,TGI,HCT-15 colon,> 100 µM
same,TGI,HL-60(TB) leukemia,68.2 µM
same,TGI,HOP-62 NSCLC,> 100 µM
same,TGI,HOP-92 NSCLC,> 100 µM
same,TGI,HS 578T breast,> 100 µM
same,TGI,HT29 colon,> 100 µM
same,TGI,IGROV1 ovarian,> 100 µM
same,TGI,K-562 leukemia,60.2 µM
same,TGI,KM12 colon,> 100 µM
same,TGI,LOX IMVI melanoma,> 100 µM
same,TGI,M14 melanoma,73.1 µM
same,TGI,MALME-3M melanoma,> 100 µM
same,TGI,MCF7 breast,> 100 µM
same,TGI,MDA-MB-231 breast,> 100 µM
same,TGI,MDA-MB-435,> 100 µM
same,TGI,MDA-N,> 100 µM
same,TGI,MOLT-4 leukemia,67.7 µM
same,TGI,NCI-H226 lung,> 100 µM
same,TGI,NCI-H23 lung,> 100 µM
same,TGI,NCI-H460 lung,> 100 µM
same,TGI,NCI-H522 lung,> 100 µM
same,TGI,NCI/ADR-RES ovarian,> 100 µM
same,TGI,OVCAR-3 ovarian,> 100 µM
same,TGI,OVCAR-4 ovarian,> 100 µM
same,TGI,OVCAR-5 ovarian,> 100 µM
same,TGI,OVCAR-8 ovarian,> 100 µM
same,TGI,PC-3 prostate,> 100 µM
same,TGI,RPMI-8226 leukemia,> 100 µM
same,TGI,RXF 393 renal,> 100 µM
same,TGI,SF-268 CNS,> 100 µM
same,TGI,SF-295 CNS,> 100 µM
same,TGI,SF-539 CNS,> 100 µM
same,TGI,SK-MEL-2 melanoma,> 100 µM
same,TGI,SK-MEL-28 melanoma,> 100 µM
same,TGI,SK-MEL-5 melanoma,> 100 µM
same,TGI,SK-OV-3 ovarian,> 100 µM
same,TGI,SNB-19 CNS,> 100 µM
same,TGI,SNB-75 CNS,> 100 µM
same,TGI,SR leukemia,> 100 µM
same,TGI,SW-620 colon,> 100 µM
same,TGI,T-47D breast,> 100 µM
same,TGI,TK-10 renal,> 100 µM
same,TGI,U251 CNS,> 100 µM
same,TGI,UACC-257 melanoma,> 100 µM
same,TGI,UACC-62 melanoma,> 100 µM
same,TGI,UO-31 renal,> 100 µM
N#Cc1nc(CCC(C(=O)O)N2C(=O)c3ccccc3C2=O)oc1N (configuration not stated),TGI,786-0 renal,> 100 µM
same,TGI,A498 renal,> 100 µM
same,TGI,A549 NSCLC,> 100 µM
same,TGI,ACHN renal,> 100 µM
same,TGI,CAKI-1 renal,> 100 µM
same,TGI,CCRF-CEM leukemia,> 100 µM
same,TGI,COLO 205 colon,> 100 µM
same,TGI,DU-145 prostate,> 100 µM
same,TGI,EKVX NSCLC,> 100 µM
same,TGI,HCC-2998 colon,> 100 µM
same,TGI,HCT-15 colon,> 100 µM
same,TGI,HL-60(TB) leukemia,> 100 µM
same,TGI,HOP-62 NSCLC,> 100 µM
same,TGI,HOP-92 NSCLC,> 100 µM
same,TGI,HS 578T breast,> 100 µM
same,TGI,HT29 colon,> 100 µM
same,TGI,IGROV1 ovarian,> 100 µM
same,TGI,K-562 leukemia,> 100 µM
same,TGI,KM12 colon,> 100 µM
same,TGI,M14 melanoma,> 100 µM
same,TGI,MALME-3M melanoma,> 100 µM
same,TGI,MCF7 breast,> 100 µM
same,TGI,MDA-MB-231 breast,> 100 µM
same,TGI,MDA-MB-435,> 100 µM
same,TGI,MDA-N,> 100 µM
same,TGI,MOLT-4 leukemia,> 100 µM
same,TGI,NCI-H226 lung,> 100 µM
same,TGI,NCI-H23 lung,> 100 µM
same,TGI,NCI-H460 lung,> 100 µM
same,TGI,NCI-H522 lung,> 100 µM
same,TGI,NCI/ADR-RES ovarian,> 100 µM
same,TGI,OVCAR-3 ovarian,> 100 µM
same,TGI,OVCAR-4 ovarian,> 100 µM
same,TGI,OVCAR-5 ovarian,> 100 µM
same,TGI,OVCAR-8 ovarian,> 100 µM
same,TGI,PC-3 prostate,> 100 µM
same,TGI,RPMI-8226 leukemia,> 100 µM
same,TGI,RXF 393 renal,> 100 µM
same,TGI,SF-268 CNS,> 100 µM
same,TGI,SF-295 CNS,> 100 µM
same,TGI,SF-539 CNS,> 100 µM
same,TGI,SK-MEL-2 melanoma,> 100 µM
same,TGI,SK-MEL-28 melanoma,> 100 µM
same,TGI,SK-MEL-5 melanoma,> 100 µM
same,TGI,SK-OV-3 ovarian,> 100 µM
same,TGI,SN12C renal,> 100 µM
same,TGI,SNB-19 CNS,> 100 µM
same,TGI,SNB-75 CNS,> 100 µM
same,TGI,SR leukemia,> 100 µM
same,TGI,SW-620 colon,> 100 µM
same,TGI,T-47D breast,> 100 µM
same,TGI,TK-10 renal,> 100 µM
same,TGI,U251 CNS,> 100 µM
same,TGI,UACC-257 melanoma,> 100 µM
same,TGI,UACC-62 melanoma,> 100 µM
same,TGI,UO-31 renal,> 100 µM
